Test results as given in patent US20230173077A1 (AJK BIOPHARMACEUTICAL, LLC, priority 2020, published 2023).
Where two headings read alike, the source gives them in different places.

System: HCoV-229E
Test: Antiviral activity and toxicity against HCoV-229E
Assay type: cell-based

| Structure (SMILES) | EC50 | EC50 (Human coronavirus 229E) |
| --- | --- | --- |
| CCCCCCCCCCCCCC(=O)OCC1OC(n2cc(F)c(N)nc2=O)CS1 (centres unmarked) [5′-O-tetradecanoyl ester conjugate of 2′,3′-dideoxy-5-fluoro-3′-thiacytidine] | 82 µM |  |
| CCC(CC)COC(=O)[C@H](C)N[P@](=O)(OC[C@H]1O[C@@](C#N)(c2ccc3c(N)ncnn23)[C@H](O)[C@@H]1O)Oc1ccccc1 [RDV, Remdesivir] |  | 0.07 µM |
